The values that follow come from patent publication US20160030476A1, “Compositions, Methods And Devices For Promoting Wound Healing And Reducing Infection” (IASIS MOLECULAR SCIENCES, priority 2013, published 2016).

Holding throughout (experiment): Therapeutic index (IC50 fibroblasts / MIC90 in broth)
Assay [1] deals with multi-drug resistant Klebsiella pneumonia (Kleb). Format: cell-based.
The subject of assay [2] is multi-drug resistant Acinetobacter baumannii (AcBc). Format: cell-based.
Assay [3] relates to MRSA. It is filed as cell-based, Staphylococcus aureus.
Assay [4] has as its system multi-drug resistant Pseudomonas aeruginosa (Pseudo). It is filed as cell-based.

For `N[C@@H](CCC(=O)N[C@@H](CS)C(=O)NCC(=O)O)C(=O)O.[Ag]` [GSH-Ag, glutathione silver], the “Kleb T.I.” value in assay [1] came to 1.4. Moreover, the “AcBc T.I.” value in assay [2] is 2.9. Besides, the “MRSA T.I.” value in assay [3] stood at 1.5. For the same compound, in assay [4], the “Pseudo T.I.” value is recorded as 2.9.
